# From PMC10014103, “The immunometabolite itaconate stimulates OXGR1 to promote mucociliary clearance during the pulmonary innate immune response” (The Journal of Clinical Investigation, 2023)
# Values joined by “and” are separate entries in the source; they are usually repeats but may differ in a detail not shown here. Equal entries are not always repeated.
# Assays:
# human OXGR1 [1] = molecular target: T1, human OXGR1 (Homo sapiens, UniProt Q96P68); assay: Aequorin assay (calcium mobilization) in HEK293 cells overexpressing human OXGR1; format: cell-based; details: for EC50: read-out: EC50
# Protocol: (§1) Thirty-six hours after transfection, cells were maintained in serum-free medium for 12 hours and then loaded with 5 μM coelenterazine for 3 hours. Cells were trypsinized and resuspended at a density of 5 × 10^5 cells/mL in HBSS supplemented with 10 mM HEPES and 0.5% BSA. Cell suspensions of 100 μL were aliquoted into 96-well plates.
# mouse OXGR1 = molecular target: T2, mouse OXGR1 (Mus musculus, UniProt Q6IYF8); assay: Aequorin assay (calcium mobilization) in HEK293 cells overexpressing mouse OXGR1; format: cell-based; details: aequorin assay, mOXGR1 in HEK293 cells; read-out: EC50
# T2 construct: expressed in transfected cells; host or cells: HEK293
# Protocol: as §1
# human OXGR1 [2] = molecular target: T1, human OXGR1; assay: Fluo-4 assay in HEK293 cells expressing human OXGR1; format: cell-based; details: Fluo-4 assay, hOXGR1 in HEK293 cells; read-out: EC50
# Protocol: For the Fluo-4AM assay, OXGR1-expressing cells were loaded with 2 μM Fluo-4AM for 30 minutes at 37°C. Excess Fluo-4AM was then washed off with HBSS buffer. After incubation at 37°C for another 10 minutes, cells were transferred onto a 96-well plate.
# human OXGR1 [3] = molecular target: T1, human OXGR1; assay: cAMP GloSensor assay in HEK293 cells expressing human OXGR1; format: cell-based; details: 0.5 mM ligand, Gs/Gi coupling
# Protocol: For the GloSensor assay, HEK293 cells stably expressing pGloSensor-22F were transfected with GPCR plasmids. Thirty-six hours after transfection, cells were trypsinized and resuspended at a density of 2.5 × 10^5 cells/mL in HBSS supplemented with 10 mM HEPES, 0.5% BSA, 2% GloSensor cAMP Reagent stock solution (Promega), and 300 μM IBMX, and loaded with GloSensor substrates for 2 hours. Cell suspensions (100 μL) were aliquoted onto 96-well plates. Cells were treated with 0.5 mM of the indicated ligand or 1 μM forskolin, and luminance was recorded.
# OXGR1 = assay: ERK phosphorylation by Western blotting in OXGR1-expressing HEK293 cells; format: cell-based, human; details: 5 μM to 1 mM for 15 minutes
# Protocol: HEK293 cells were transiently transfected with plasmids expressing empty vector or FLAG-tagged OXGR1 using PolyJet reagent. The medium was switched to serum-free DMEM 36 hours after transfection. After serum starvation for another 12 hours, cells were stimulated with the indicated ligand and lysed in Laemmli buffer. Protein lysate was separated on standard SDS-PAGE, transferred onto a PVDF membrane, and then subjected to immunoblotting with the following antibodies: anti–p-ERK (catalog 4370, Cell Signaling Technology); anti-Flag (catalog 14793, Cell Signaling Technology); anti-IRG1/anti-ACOD1 (catalog 19857, Cell Signaling Technology); anti-Myc (catalog 2278, Cell Signaling Technology); anti-ERK (catalog 67170-1-Ig, Proteintech); and anti-actin (catalog A00702, GenScript).
# [4] = test system: human OXGR1 orthosteric site mutants; assay: Aequorin assay in HEK293 cells expressing mutant human OXGR1; format: cell-based; details: effect of mutation on ligand-stimulated calcium response
# Protocol: as §1
# [5] = test system: primary respiratory epithelial cells from Oxgr1+/+ and Oxgr1–/– mice; assay: Calcium imaging (Fluo-4AM) of primary mouse trachea epithelial cells; format: cell-based; details: 670 μM ITA or 100 μM ATP
# Protocol: (§2) For calcium imaging of human primary bronchial epithelial cells, cells were infected with 2 CRISPR lentiviruses targeting OXGR1 and cultured for 2 days before calcium imaging. For calcium imaging of primary mouse cells, freshly isolated mouse tracheas were cut into rings, placed onto collagen-coated dishes, and cultured in DMEM supplemented with 10% FBS. Cells were loaded with 5 μM Fluo-4AM for 30 minutes in HBSS buffer, washed twice, and incubated for another 15 minutes for fully deesterification of Fluo-4AM. Cells loaded with Fluo-4AM were monitored with the BioTek Cytation 5 Cell imaging system every 300 ms for a total of 1.5 minutes after ligand administration. Fluorescence was quantified with ImageJ software (NIH).
# [6] = test system: primary human bronchial epithelial cells; assay: Calcium imaging (Fluo-4AM) of primary human bronchial epithelial cells; format: cell-based; details: 0.5 mM ITA
# Protocol: as §2
# mouse trachea = assay: Ex vivo trachea culture, cilia beating-derived fluorescent bead movement; details: 500 μM ITA or 100 μM ATP
# Protocol: Tracheas were harvested from mice and cut longitudinally through the middle of the trachealis muscle to expose the lumen of the trachea. Tracheas were then transferred into HBSS buffer and equilibrated for 30 minutes. With the lumen facing down, trachea tissues were transferred into 2 mL HBSS buffer supplemented with 0.5% methylcellulose, red fluorescent beads, 30 mM HEPES, and the indicated ligand. Bead flow was monitored with the BioTek Cytation 5 cell imaging system. Twenty individual beads were tracked from different fields of view in each condition, and the speed of each bead was calculated by […].
# [7] = test system: primary human respiratory epithelial cells (ALI culture); assay: Bead movement in ALI culture of primary human bronchial epithelial cells; format: cell-based; details: 500 μM ITA, OXGR1-dependent
# Protocol: . When they reached full confluence, the cells were differentiated by exposure to air and cultured in a serum-free medium for 20 days. ALI culturing of primary human bronchial epithelium was performed following the manufacturer’s manual ([…] Technologies). Briefly, cells were maintained in PneumaCult-Ex Plus medium on a Transwell insert. Medium on the lateral side was switched to PneumaCult-ALI medium. The apical side of the Transwell membrane was then carefully washed with prewarmed Dulbecco’s PBS (DPBS). Cells were differentiated by exposure to air for 3 weeks. The medium was changed every 2 days.
# For the measurement of bead movement in ALI culture, the apical side of the ALI culture inserts was washed with PBS 5 times to fully remove mucus. The inserts were transferred to HBSS buffer supplemented with 30 mM HEPES and the indicated ligand, and 20 μL bath buffer containing red fluorescent beads was added to the apical side. After 15 minutes of equilibration, bead movement was monitored with the BioTek Cytation 5 cell imaging system.
# [8] = test system: mucin 5b and β-defensin 1; assay: ELISA of mucin 5b and β-defensin 1 in BAL of P. aeruginosa infected mice; format: in vivo, mouse; details: ITA intranasal supplementation, P. aeruginosa infection
# Description: Mucins and antimicrobial polypeptides are essential immune defense components secreted by the respiratory tract ([41], [42]). To test the hypothesis that ITA/OXGR1 signaling may alter the concentration of mucins and antimicrobial polypeptides, we performed an ELISA to quantify the concentration of mucin 5b and β-defensin 1 in the mouse models of P. aeruginosa infection. […] It should be noted that Oxgr1 activation by ITA can simultaneously facilitate mucus secretion and mucus transport (Figure 4). These 2 “opposite” effects of ITA/OXGR1 on mucus may explain the observation of a lack of significant change in mucin 5b and β-defensin 1 in the airway’s surface liquid.
# T2 sequence (Q6IYF8 whole entry): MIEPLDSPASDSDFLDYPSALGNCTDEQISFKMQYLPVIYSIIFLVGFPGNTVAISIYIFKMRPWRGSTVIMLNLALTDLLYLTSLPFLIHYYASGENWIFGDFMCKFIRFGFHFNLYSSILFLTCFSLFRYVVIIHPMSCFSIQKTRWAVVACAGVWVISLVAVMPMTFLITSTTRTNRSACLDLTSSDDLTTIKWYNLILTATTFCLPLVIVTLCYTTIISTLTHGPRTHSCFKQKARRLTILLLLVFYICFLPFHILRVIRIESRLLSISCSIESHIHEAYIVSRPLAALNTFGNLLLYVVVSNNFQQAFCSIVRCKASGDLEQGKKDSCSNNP
compound,measurement,setting,value
"C=C(CC(=O)O)C(=O)O [ITA, itaconate]",calcium response (agonist effect),"human OXGR1 [1]; HEK293 cells overexpressing human OXGR1, aequorin",stimulated the calcium response in a dose-dependent manner
same,EC50,"human OXGR1 [1]; OXGR1, as stated in abstract",~300 µM
same,EC50,"human OXGR1 [1]; aequorin assay, hOXGR1 in HEK293 cells",310 ± 45.2 µM
same,EC50,"human OXGR1 [1]; human OXGR1, text summary of Figure 1F and Supplemental Figure 2 (aequorin and Fluo-4)",200 to 300 µM
same,EC50,mouse OXGR1,416 µM and ~400 µM
same,EC50,human OXGR1 [2],221 ± 107 µM
same,intracellular cAMP,human OXGR1 [3],did not affect intracellular cAMP
same,phosphorylation of ERK,OXGR1,dose-dependently induced
same,"calcium response, mutants C106A, R110A, H258A, R261A, I265A",[4],completely abolished
same,"calcium response, mutants H114A, Y118F, I121A, I285A, R288A",[4],dramatically impaired
same,"calcium mobilization, Oxgr1+/+ cells",[5],rapid calcium mobilization
same,calcium mobilization,[6]; control cells,robust calcium mobilization
same,calcium mobilization after depletion of OXGR1,[6]; sgOXGR1,abolished by depletion of OXGR1
same,"movement of beads, trachea from Oxgr1+/+ mice",mouse trachea,significantly increased the movement of beads
same,movement of beads,[7],accelerated the movement of beads
same,level of mucin 5b in BAL,[8],Neither ITA intranasal supplementation nor Irg1 or Oxgr1 KO altered the levels
same,level of β-defensin 1 in BAL,[8],Neither ITA intranasal supplementation nor Irg1 or Oxgr1 KO altered the levels
